We go through 20 compounds from ChEMBL document CHEMBL1147020, “Low molecular weight indole fragments as IMPDH inhibitors” (Bioorg Med Chem Lett, 2006).

pIC50: −log10 of the molar value. Calls of active or inactive are those of the source. The calls are words filed in the database; no cut-off is given here.

The first assay has as its target T1, Inosine-5'-monophosphate dehydrogenase 2 (Homo sapiens, UniProt P12268). Briefly: Inhibition of IMPDH2 at 50 uM.
Usually inhibition stands for the relative decrease from the control value, in per cent. For `NC(=O)c1c[nH]c2ccccc12`, the inhibition result is “inactive”. On to `Cn1cc(-c2ccncc2)c2ccc(Br)cc21`, for which the inhibition came out at 62%.

As to `Cn1cc(C(N)=O)c2ccccc21`, the inhibition worked out at 50%.

As to `Cc1cc(-c2c[nH]c3cc(N)ccc23)ccn1`, the inhibition result was “inactive”.

Take `c1cncc(-c2c[nH]c3ccccc23)c1`: the inhibition result is “inactive”.

Another assay addresses T1, Inosine-5'-monophosphate dehydrogenase 2. Put plainly: Inhibition of IMPDH2.
The pIC50 is the negative decadic logarithm of the IC50, by convention in mol/L. The compound `c1ccc2c(-c3ccncc3)c[nH]c2c1` had a pIC50 of 5.94. The same measure, in the same setting: as for `Nc1cccc2c(-c3ccncc3)c[nH]c12`, the figure is 6.28; as for `Cc1[nH]c2cc(N)ccc2c1-c1ccncc1`, 6.38; as for `Brc1ccc2c(-c3ccncc3)c[nH]c2c1`, 6.39. Take `Nc1ccc2c(-c3ccncc3)c[nH]c2c1`: the negative logarithm of the IC50 (pIC50) is 6.20. Compound `Cn1cc(-c2ccoc2)c2ccccc21` showed a pIC50 of 5.21. In the case of `N#Cc1c[nH]c2ccccc12`, the pIC50 was 4.68. Against the preceding compound, the pIC50 is 0.53 log units lower. Consider `O=Cc1c[nH]c2ccccc12` [3-FORMYLINDOLE], for which the pIC50 was 4.64.

As for `Nc1ccc2c(-c3ccsc3)c[nH]c2c1`, the pIC50 is 5.63. Turning to `COc1cc(N)ccc1-c1cnco1`, the negative-log IC50 (pIC50) is 5.09. Compound `Cc1[nH]c2ccccc2c1-c1ccncc1` showed a negative logarithm of the IC50 (pIC50) of 6.46. With `Nc1ccc2c(-c3cncs3)c[nH]c2c1`, the negative logarithm of the IC50 (pIC50) was 4.55. On the same count and under the same terms, as for `Cn1cc(C=O)c2ccccc21`, the figure is 5.16; as for `Cn1cc(C#N)c2ccccc21`, 5.12.

As for `c1ccc2c(-c3ccoc3)c[nH]c2c1`, the negative logarithm of the IC50 (pIC50) was 5.23.
